One data set concerns the target p38MAPKγ (MAPK12) (Homo sapiens (Human), UniProt P53778). Put plainly: p38 MAPKγ enzyme inhibition (FRET, Z-LYTE). It counts as biochemical. In short, it runs like this: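 Z-LYTE FRET kinase format on donor/acceptor-labeled synthetic peptide; protease development 1 hr cleaves only non-phosphorylated peptide. Phosphorylation derived from coumarin/fluorescein emission ratio, low ratio indicating high phosphorylation.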

A further data set has as its system d-U937 cells. Put plainly: Cell viability: MTT assay. It counts as cell-based, human. The note with it: 1 μg/mL. In outline:
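Differentiated U937 cells exposed to compound at 1 or 10 μg/mL final, either 4 h in 5% FCS RPMI1640 or 24 h in 10% FCS RPMI1640. After medium replacement, MTT added 1 h, formazan dissolved in DMSO, A550 read. % viability loss vs 0.5% DMSO vehicle; apparent viability gain shown as negative %.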

In another data set the test system is PBMC cells. Kind of data set: Cell mitosis assay. The format is cell-based, human. How it is done: Peripheral blood mononucleocytes (PBMCs) from healthy subjects were separated from whole blood (Quintiles, London, UK) using a density gradient (Histopaque®-1077, Sigma-Aldrich, Poole, UK). The PBMCs (3 million cells per sample) were subsequently treated with 2% PHA (Sigma-Aldrich, Poole, UK) for 48 hr, followed by a 20 hr exposure to varying concentrations of test compounds. At 2 hr before collection, PBMCs were treated with demecolcine (0.1 μg/mL; Invitrogen, Paisley, UK,) to arrest cells in metaphase. To observe mitotic cells, PBMCs were permeabilised and fixed by adding Intraprep (50 μL; Beckman Coulter, France), and stained with anti-phospho-histone 3 ([…]; #9701; Cell Signalling, Danvers, Mass.) and propidium iodide (1 mg/mL; Sigma-Aldrich, Poole, UK,) as previously described (Muehlbauer P. A. and Schuler M. J., Mutation Research, 2003, 537:117-130). Fluorescence was observed using an ATTUNE flow cytometer (Invitrogen, Paisley, UK), gating for lymphocytes.

The target in data set [1] is p38 MAPKα isoform (MAPK14) (Homo sapiens (Human), UniProt Q16539). Kind of data set: p38 MAPKα enzyme inhibition (FRET, Z-LYTE). It counts as biochemical.
Sequence of p38 MAPKα isoform (MAPK14) (Q16539 whole entry, canonical isoform): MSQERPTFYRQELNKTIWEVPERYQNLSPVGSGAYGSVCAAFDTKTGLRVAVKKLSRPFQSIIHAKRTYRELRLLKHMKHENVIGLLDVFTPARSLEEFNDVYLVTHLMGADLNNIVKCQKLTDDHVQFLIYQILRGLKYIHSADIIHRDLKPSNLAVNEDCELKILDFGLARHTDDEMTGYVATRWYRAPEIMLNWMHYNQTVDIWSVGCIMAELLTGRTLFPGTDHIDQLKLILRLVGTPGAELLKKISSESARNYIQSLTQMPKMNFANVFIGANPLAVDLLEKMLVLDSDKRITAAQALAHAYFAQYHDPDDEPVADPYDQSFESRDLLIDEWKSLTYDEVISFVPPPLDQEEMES
The next data set concerns the target GSK 3α enzyme isoform (Homo sapiens (Human), UniProt P49840). Put plainly: GSK 3α enzyme inhibition (FRET, Z-LYTE). It counts as biochemical. The note with it: read-out: IC50 Values for Enzyme Inhibition GSK3α. In short, it runs like this: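 Human GSK3α (500 ng/mL stock) was preincubated 2 h at RT with compound (stocks 4, 0.4, 0.04 or 0.004 μg/mL), then given FRET peptide (8 μM stock) and ATP (40 μM stock) for 1 h. After 1 h protease development, the coumarin/fluorescein emission ratio gave phosphorylation level.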

Data set [2] has as its system ICAM-1 expression in BEAS2B cells. Kind of data set: Poly I:C-induced ICAM-1 expression in BEAS2B cells. It counts as cell-based, human. The note with it: Homo sapiens, BEAS-2B, read-out: PolyIC/ICAM1 IC50 (BEAS2B). In outline: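 BEAS2B human bronchial epithelial cells pre-incubated 2 h with compound, then transfected with 1 μg/mL poly I:C plus Oligofectamine. After 18 h, surface ICAM-1 measured by cell-based ELISA (OD450–655), normalised to crystal violet cell count (OD595). Inhibition calculated against vehicle control.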

Sequence of p38MAPKγ (MAPK12) (P53778 whole entry): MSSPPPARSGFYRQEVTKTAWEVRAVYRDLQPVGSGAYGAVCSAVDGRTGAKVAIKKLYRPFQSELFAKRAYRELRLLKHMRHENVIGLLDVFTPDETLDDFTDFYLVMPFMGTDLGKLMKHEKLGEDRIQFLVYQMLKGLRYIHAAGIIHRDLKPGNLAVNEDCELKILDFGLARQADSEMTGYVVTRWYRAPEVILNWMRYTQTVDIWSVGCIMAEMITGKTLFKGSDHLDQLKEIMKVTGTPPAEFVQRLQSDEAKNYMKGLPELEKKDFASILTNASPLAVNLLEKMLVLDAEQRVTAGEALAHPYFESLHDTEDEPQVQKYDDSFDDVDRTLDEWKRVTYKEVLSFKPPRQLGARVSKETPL
Sequence of GSK 3α enzyme isoform (P49840 whole entry, canonical isoform): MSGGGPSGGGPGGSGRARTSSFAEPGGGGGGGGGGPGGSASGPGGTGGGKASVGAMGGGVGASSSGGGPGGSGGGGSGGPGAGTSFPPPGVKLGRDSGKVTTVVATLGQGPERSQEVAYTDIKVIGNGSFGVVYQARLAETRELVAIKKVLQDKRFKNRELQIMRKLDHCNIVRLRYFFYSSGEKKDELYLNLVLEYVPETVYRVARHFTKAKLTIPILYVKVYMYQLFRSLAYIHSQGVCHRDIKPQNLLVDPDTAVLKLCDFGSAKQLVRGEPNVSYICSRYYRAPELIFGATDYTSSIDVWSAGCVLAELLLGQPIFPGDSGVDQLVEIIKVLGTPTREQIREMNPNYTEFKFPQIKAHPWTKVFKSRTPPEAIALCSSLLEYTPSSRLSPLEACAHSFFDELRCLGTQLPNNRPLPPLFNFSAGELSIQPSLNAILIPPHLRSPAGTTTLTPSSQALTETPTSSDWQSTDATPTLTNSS

`Cc1ccc(-n2nc(C(C)(C)C)cc2NC(=O)Nc2ccc(Oc3ccnc(Nc4cccc(O)c4)n3)c3ccccc23)cc1` [Example 2, 1-(3-(tert-Butyl)-1-(p-tolyl)-1H-pyrazol-5-yl)-3-(4-((2-((3-hydroxyphenyl)amino)pyrimidin-4-yl)oxy)naphthalen-1-yl)urea] yielded an IC50 against p38MAPKγ (MAPK12) of 557 nM. In addition, the “MTT Assay Cell viability at time point in d-U937 Cells” value (“MTT Assay Cell viability” for short) with d-U937 cells (4 h) was “−ve (−ve and +ve indicate the value is below and above respectively, the no significant effect threshold defined as 30% inhibition at 1 μg/mL at the time point indicated)”; in the data set with d-U937 cells (24 h), “−ve (−ve and +ve indicate the value is below and above respectively, the no significant effect threshold defined as 30% inhibition at 1 μg/mL at the time point indicated)”. In the data set with PBMC cells (5 μg/mL), the “Mitosis Assay % inhibition in PBMC Cells” value is 70.6%.

`Cc1ccc(-n2nc(C(C)(C)C)cc2NC(=O)Nc2ccc(Oc3ccnc(Nc4ccc(O)cc4)n3)c3ccccc23)cc1` [Example 9, 1-(3-(tert-butyl)-1-(p-tolyl)-1H-pyrazol-5-yl)-3-(4-((2-((4-hydroxyphenyl)amino)pyrimidin-4-yl)oxy)naphthalen-1-yl)urea]: the IC50 came to 760 nM at p38MAPKγ (MAPK12), 171 nM in data set [1] and 3260 nM at GSK 3α enzyme isoform. Also, the “MTT Assay Cell viability” value in the data set on d-U937 cells (4 h) was “−ve (−ve and +ve indicate the value is below and above respectively, the no significant effect threshold defined as 30% inhibition at 1 μg/mL at the time point indicated)”; in the data set with d-U937 cells (24 h), “−ve (−ve and +ve indicate the value is below and above respectively, the no significant effect threshold defined as 30% inhibition at 1 μg/mL at the time point indicated)”. For the same compound, in the data set on PBMC cells (5 μg/mL), the “Mitosis Assay % inhibition in PBMC Cells” value was found to be 50.3%.

For the compound `COc1ccc(-n2nc(C(C)(C)C)cc2NC(=O)Nc2ccc(Oc3ccnc(Nc4ccc(O)cc4)n3)c3ccccc23)cc1` [Example 33, 1-(3-(tert-butyl)-1-(4-methoxyphenyl)-1H-pyrazol-5-yl)-3-(4-((2-((4-hydroxyphenyl)amino)pyrimidin-4-yl)oxy)naphthalen-1-yl)urea], the IC50 on p38MAPKγ (MAPK12) turned out to be 264 nM; in data set [1], 60 nM; in data set [2], 2.6 nM; on GSK 3α enzyme isoform, 2380 nM. In addition, the “MTT Assay Cell viability” value in the data set on d-U937 cells (4 h) was “−ve (−ve and +ve indicate the value is below and above respectively, the no significant effect threshold defined as 30% inhibition at 1 μg/mL at the time point indicated)”; in the data set on d-U937 cells (24 h) it was “−ve (−ve and +ve indicate the value is below and above respectively, the no significant effect threshold defined as 30% inhibition at 1 μg/mL at the time point indicated)”. Moreover, in the data set on PBMC cells (5 μg/mL), the “Mitosis Assay % inhibition in PBMC Cells” value was determined as 67.2%.

Consider `Cc1ccc(-n2nc(C(C)(C)C)cc2NC(=O)Nc2ccc(Oc3ccnc(Nc4ccc(O)cc4O)n3)c3ccccc23)cc1` [Example 32, 1-(3-(tert-butyl)-1-(p-tolyl)-1H-pyrazol-5-yl)-3-(4-((2-((2,4-dihydroxyphenyl)amino)pyrimidin-4-yl)oxy)naphthalen-1-yl)urea], for which the IC50 on p38MAPKγ (MAPK12) was greater than 1620 nM; in data set [1] it was 189 nM; in data set [2], 21 nM; on GSK 3α enzyme isoform it was greater than 1620 nM. For the same compound, the “MTT Assay Cell viability” value with d-U937 cells (4 h) was “−ve (−ve and +ve indicate the value is below and above respectively, the no significant effect threshold defined as 30% inhibition at 1 μg/mL at the time point indicated)”; with d-U937 cells (24 h), “−ve (−ve and +ve indicate the value is below and above respectively, the no significant effect threshold defined as 30% inhibition at 1 μg/mL at the time point indicated)”. In the data set with PBMC cells (5 μg/mL), the “Mitosis Assay % inhibition in PBMC Cells” value is 33.0%.

Consider `COc1ccc(Nc2nccc(Oc3ccc(NC(=O)Nc4cc(C(C)(C)C)nn4-c4ccc(C)cc4)c4ccccc34)n2)cc1OC` [Example 27, 1-(3-(tert-butyl)-1-(p-tolyl)-1H-pyrazol-5-yl)-3-(4-((2-((3,4-dimethoxyphenyl)amino)pyrimidin-4-yl)oxy)naphthalen-1-yl)urea], for which the IC50 came out at 535 nM on p38MAPKγ (MAPK12), 105 nM in data set [1], 1.6 nM in data set [2] and 2110 nM on GSK 3α enzyme isoform. Further, the “MTT Assay Cell viability” value with d-U937 cells (4 h) is “+ve (−ve and +ve indicate the value is below and above respectively, the no significant effect threshold defined as 30% inhibition at 1 μg/mL at the time point indicated)”; in the data set with d-U937 cells (24 h) it was “−ve (−ve and +ve indicate the value is below and above respectively, the no significant effect threshold defined as 30% inhibition at 1 μg/mL at the time point indicated)”. Further, the “Mitosis Assay % inhibition in PBMC Cells” value in the data set on PBMC cells (5 μg/mL) turned out to be 11.2%.

Regarding `CCOc1ccc(Nc2nccc(Oc3ccc(NC(=O)Nc4cc(C(C)(C)C)nn4-c4ccc(C)cc4)c4ccccc34)n2)cc1` [Example 22, 1-(3-(tert-butyl)-1-(p-tolyl)-1H-pyrazol-5-yl)-3-(4-((2-((4-ethoxyphenyl)amino)pyrimidin-4-yl)oxy)naphthalen-1-yl)urea], the IC50 is greater than 1590 nM at p38MAPKγ (MAPK12), 281 nM in data set [1], 13 nM in data set [2] and greater than 1590 nM at GSK 3α enzyme isoform. Moreover, the “MTT Assay Cell viability” value in the data set with d-U937 cells (4 h) is “−ve (−ve and +ve indicate the value is below and above respectively, the no significant effect threshold defined as 30% inhibition at 1 μg/mL at the time point indicated)”; in the data set with d-U937 cells (24 h), “−ve (−ve and +ve indicate the value is below and above respectively, the no significant effect threshold defined as 30% inhibition at 1 μg/mL at the time point indicated)”. Moreover, the “Mitosis Assay % inhibition in PBMC Cells” value in the data set with PBMC cells (5 μg/mL) is given as 70.8%.

As for `COc1ccc(Nc2nccc(Oc3ccc(NC(=O)Nc4cc(C(C)(C)C)nn4-c4ccc(C)cc4)c4ccccc34)n2)c(OC)c1` [Example 8, 1-(3-(tert-butyl)-1-(p-tolyl)-1H-pyrazol-5-yl)-3-(4-((2-((2,4-dimethoxyphenyl)amino)pyrimidin-4-yl)oxy)naphthalen-1-yl)urea], the IC50 on p38MAPKγ (MAPK12) is greater than 15500 nM; in data set [1] it was 151 nM; in data set [2], 22 nM; on GSK 3α enzyme isoform it was greater than 15500 nM. For the same compound, the “MTT Assay Cell viability” value in the data set on d-U937 cells (4 h) was “−ve (−ve and +ve indicate the value is below and above respectively, the no significant effect threshold defined as 30% inhibition at 1 μg/mL at the time point indicated)”; in the data set with d-U937 cells (24 h) it was “−ve (−ve and +ve indicate the value is below and above respectively, the no significant effect threshold defined as 30% inhibition at 1 μg/mL at the time point indicated)”. Moreover, the “Mitosis Assay % inhibition in PBMC Cells” value in the data set with PBMC cells (1 μg/mL) worked out at 15.6%.

Regarding `COc1ccc(-n2nc(C(C)(C)C)cc2NC(=O)Nc2ccc(Oc3ccnc(Nc4ccccc4)n3)c3ccccc23)cc1` [Example 7, 1-(3-(tert-butyl)-1-(4-methoxyphenyl)-1H-pyrazol-5-yl)-3-(4-((2-(phenylamino)pyrimidin-4-yl)oxy)naphthalen-1-yl)urea], the IC50 is 1700 nM at p38MAPKγ (MAPK12), 170 nM in data set [1], 23 nM in data set [2] and 3500 nM on GSK 3α enzyme isoform. Moreover, the “MTT Assay Cell viability” value with d-U937 cells (4 h) is “−ve (−ve and +ve indicate the value is below and above respectively, the no significant effect threshold defined as 30% inhibition at 1 μg/mL at the time point indicated)”; in the data set with d-U937 cells (24 h) it was “−ve (−ve and +ve indicate the value is below and above respectively, the no significant effect threshold defined as 30% inhibition at 1 μg/mL at the time point indicated)”. In addition, in the data set with PBMC cells (5 μg/mL), the “Mitosis Assay % inhibition in PBMC Cells” value is 10.2%.

In the case of `CC(C)(C)c1cc(NC(=O)Nc2ccc(Oc3ccnc(Nc4ccccc4)n3)c3ccccc23)n(-c2ccc(O)cc2)n1` [Example 3, 1-(3-(tert-butyl)-1-(4-hydroxyphenyl)-1H-pyrazol-5-yl)-3-(4-((2-(phenylamino)pyrimidin-4-yl)oxy)naphthalen-1-yl)urea], the IC50 was 1500 nM against p38MAPKγ (MAPK12), 173 nM in data set [1], 4.1 nM in data set [2] and 2490 nM on GSK 3α enzyme isoform. Besides, the “MTT Assay Cell viability” value with d-U937 cells (4 h) was “−ve (−ve and +ve indicate the value is below and above respectively, the no significant effect threshold defined as 30% inhibition at 1 μg/mL at the time point indicated)”; in the data set with d-U937 cells (24 h), “−ve (−ve and +ve indicate the value is below and above respectively, the no significant effect threshold defined as 30% inhibition at 1 μg/mL at the time point indicated)”.

(Values after US9724347B2, “1-pyrazolyl-3-(4-((2-anilinopyrimidin-4-yl)oxy)napththalen-1-yl) ureas as P38 MAP knase inhibitors” (Respivert Ltd., priority 2011, dated 2017).)
